Measured values as given in patent publication US10765114B2, “4-amino-6-(pyridyl and 2-substitutedphenyl)-picolinates and 6-amino-2-(pyridyl and 2-substitutedphenyl)-pyrimidine-4-carboxylates and their use as herbicides” (Dow AgroSciences LLC, priority 2013, dated 2020).

Tested on: Key Broadleaf Weed and Crop Species
Assay: Post-Emergent Test II (Table 5)
Assay type: in vivo
Conditions: Abutilon theophrasti, post-emergence, 336 h, ABUTH: velvetleaf (Abutilon theophrasti), application rate 70 (kg ai/ha; footnote: g ai/ha), read-out: Visual Growth Reduction (%) 14 Days After Application ABUTH
In short: (§1)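 Plants grown in a greenhouse (~15 h photoperiod, 23-29° C day) to first or second true leaf stage were sprayed post-emergence at 187 L/ha with compound in acetone/DMSO-based aqueous spray containing crop oil concentrate and surfactant, applied at a high rate plus ½× to 1/16× serial rates. Injury was scored visually 14 days later, 0-100% versus untreated plants.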

Structure (SMILES) | pest or weed control at 70 g/ha [%]
Cc1c(-c2cc(N)c(Cl)c(C(=O)O)n2)ccc(Cl)c1Cl [Compound 28] | 95 to 100

Same assay, conditions: Abutilon theophrasti, post-emergence, 336 h, ABUTH: velvetleaf (Abutilon theophrasti), application rate 140 (kg ai/ha; footnote: g ai/ha), read-out: Visual Growth Reduction (%) 14 Days After Application ABUTH

Structure (SMILES) | pest or weed control at 140 g/ha [%]
Cc1c(-c2cc(N)c(Cl)c(C(=O)O)n2)ccc(Cl)c1Cl [Compound 28] | 95 to 100

Same assay, conditions: Amaranthus retroflexus, post-emergence, 336 h, AMARE: redroot pigweed (Amaranthus retroflexus), application rate 70 (kg ai/ha; footnote: g ai/ha), read-out: Visual Growth Reduction (%) 14 Days After Application AMARE

Structure (SMILES) | pest or weed control at 70 g/ha [%]
Cc1c(-c2cc(N)c(Cl)c(C(=O)O)n2)ccc(Cl)c1Cl [Compound 28] | 95 to 100

Same assay, conditions: Amaranthus retroflexus, post-emergence, 336 h, AMARE: redroot pigweed (Amaranthus retroflexus), application rate 140 (kg ai/ha; footnote: g ai/ha), read-out: Visual Growth Reduction (%) 14 Days After Application AMARE

Structure (SMILES) | pest or weed control at 140 g/ha [%]
Cc1c(-c2cc(N)c(Cl)c(C(=O)O)n2)ccc(Cl)c1Cl [Compound 28] | 95 to 100

Same assay, conditions: Brassica napus, post-emergence, 336 h, BRSSS: oilseed rape, canola (Brassica napus), application rate 70 (kg ai/ha; footnote: g ai/ha), read-out: Visual Growth Reduction (%) 14 Days After Application BRSSS

Structure (SMILES) | pest or weed control at 70 g/ha [%]
Cc1c(-c2cc(N)c(Cl)c(C(=O)O)n2)ccc(Cl)c1Cl [Compound 28] | 60 to 74

Same assay, conditions: Brassica napus, post-emergence, 336 h, BRSSS: oilseed rape, canola (Brassica napus), application rate 140 (kg ai/ha; footnote: g ai/ha), read-out: Visual Growth Reduction (%) 14 Days After Application BRSSS

Structure (SMILES) | pest or weed control at 140 g/ha [%]
Cc1c(-c2cc(N)c(Cl)c(C(=O)O)n2)ccc(Cl)c1Cl [Compound 28] | 75 to 84

Same assay, conditions: Chenopodium album, post-emergence, 336 h, CHEAL: lambsquarters (Chenopodium album), application rate 70 (kg ai/ha; footnote: g ai/ha), read-out: Visual Growth Reduction (%) 14 Days After Application CHEAL

Structure (SMILES) | pest or weed control at 70 g/ha [%]
Cc1c(-c2cc(N)c(Cl)c(C(=O)O)n2)ccc(Cl)c1Cl [Compound 28] | 95 to 100

Same assay, conditions: Chenopodium album, post-emergence, 336 h, CHEAL: lambsquarters (Chenopodium album), application rate 140 (kg ai/ha; footnote: g ai/ha), read-out: Visual Growth Reduction (%) 14 Days After Application CHEAL

Structure (SMILES) | pest or weed control at 140 g/ha [%]
Cc1c(-c2cc(N)c(Cl)c(C(=O)O)n2)ccc(Cl)c1Cl [Compound 28] | 95 to 100

Same assay, conditions: Euphorbia heterophylla, post-emergence, 336 h, EPHHL: wild poinsettia (Euphorbia heterophylla), application rate 70 (kg ai/ha; footnote: g ai/ha), read-out: Visual Growth Reduction (%) 14 Days After Application EPHHL

Structure (SMILES) | pest or weed control at 70 g/ha [%]
Cc1c(-c2cc(N)c(Cl)c(C(=O)O)n2)ccc(Cl)c1Cl [Compound 28] | 0 to 29

Same assay, conditions: Euphorbia heterophylla, post-emergence, 336 h, EPHHL: wild poinsettia (Euphorbia heterophylla), application rate 140 (kg ai/ha; footnote: g ai/ha), read-out: Visual Growth Reduction (%) 14 Days After Application EPHHL

Structure (SMILES) | pest or weed control at 140 g/ha [%]
Cc1c(-c2cc(N)c(Cl)c(C(=O)O)n2)ccc(Cl)c1Cl [Compound 28] | 0 to 29

Same assay, conditions: Helianthus annuus, post-emergence, 336 h, HELAN: sunflower (Helianthus annuus), application rate 70 (kg ai/ha; footnote: g ai/ha), read-out: Visual Growth Reduction (%) 14 Days After Application HELAN

Structure (SMILES) | pest or weed control at 70 g/ha [%]
Cc1c(-c2cc(N)c(Cl)c(C(=O)O)n2)ccc(Cl)c1Cl [Compound 28] | 85 to 94

Same assay, conditions: Helianthus annuus, post-emergence, 336 h, HELAN: sunflower (Helianthus annuus), application rate 140 (kg ai/ha; footnote: g ai/ha), read-out: Visual Growth Reduction (%) 14 Days After Application HELAN

Structure (SMILES) | pest or weed control at 140 g/ha [%]
Cc1c(-c2cc(N)c(Cl)c(C(=O)O)n2)ccc(Cl)c1Cl [Compound 28] | 85 to 94

Same assay, conditions: Viola tricolor, post-emergence, 336 h, VIOTR: wild pansy (Viola tricolor), application rate 70 (kg ai/ha; footnote: g ai/ha), read-out: Visual Growth Reduction (%) 14 Days After Application VIOTR

Structure (SMILES) | pest or weed control at 70 g/ha [%]
Cc1c(-c2cc(N)c(Cl)c(C(=O)O)n2)ccc(Cl)c1Cl [Compound 28] | 0 to 29

Same assay, conditions: Viola tricolor, post-emergence, 336 h, VIOTR: wild pansy (Viola tricolor), application rate 140 (kg ai/ha; footnote: g ai/ha), read-out: Visual Growth Reduction (%) 14 Days After Application VIOTR

Structure (SMILES) | pest or weed control at 140 g/ha [%]
Cc1c(-c2cc(N)c(Cl)c(C(=O)O)n2)ccc(Cl)c1Cl [Compound 28] | 0 to 29

Tested on: Key Grass and Sedge Weeds as well as Grass Crops
Assay: Post-Emergent Test II (Table 6)
Assay type: in vivo
Conditions: post-emergence, 336 h, CYPSS, 70 g ai/ha, 14 days after application, read-out: Visual Growth Reduction (%) 14 Days After Application CYPSS
In short: as §1

Structure (SMILES) | pest or weed control at 70 g/ha [%]
Cc1c(-c2cc(N)c(Cl)c(C(=O)O)n2)ccc(Cl)c1Cl [Compound 28] | 0 to 29

Same assay, conditions: post-emergence, 336 h, CYPSS, 140 g ai/ha, 14 days after application, read-out: Visual Growth Reduction (%) 14 Days After Application CYPSS

Structure (SMILES) | pest or weed control at 140 g/ha [%]
Cc1c(-c2cc(N)c(Cl)c(C(=O)O)n2)ccc(Cl)c1Cl [Compound 28] | 0 to 29

Same assay, conditions: post-emergence, 336 h, DIGSA: crabgrass (Digitaria sanguinalis), 70 g ai/ha, 14 days after application, read-out: Visual Growth Reduction (%) 14 Days After Application DIGSA

Structure (SMILES) | pest or weed control at 70 g/ha [%]
Cc1c(-c2cc(N)c(Cl)c(C(=O)O)n2)ccc(Cl)c1Cl [Compound 28] | 0 to 29

Same assay, conditions: post-emergence, 336 h, DIGSA: crabgrass (Digitaria sanguinalis), 140 g ai/ha, 14 days after application, read-out: Visual Growth Reduction (%) 14 Days After Application DIGSA

Structure (SMILES) | pest or weed control at 140 g/ha [%]
Cc1c(-c2cc(N)c(Cl)c(C(=O)O)n2)ccc(Cl)c1Cl [Compound 28] | 0 to 29

Same assay, conditions: post-emergence, 336 h, ECHSS, 70 g ai/ha, 14 days after application, read-out: Visual Growth Reduction (%) 14 Days After Application ECHSS

Structure (SMILES) | pest or weed control at 70 g/ha [%]
Cc1c(-c2cc(N)c(Cl)c(C(=O)O)n2)ccc(Cl)c1Cl [Compound 28] | 0 to 29

Same assay, conditions: post-emergence, 336 h, ECHSS, 140 g ai/ha, 14 days after application, read-out: Visual Growth Reduction (%) 14 Days After Application ECHSS

Structure (SMILES) | pest or weed control at 140 g/ha [%]
Cc1c(-c2cc(N)c(Cl)c(C(=O)O)n2)ccc(Cl)c1Cl [Compound 28] | 0 to 29

Same assay, conditions: post-emergence, 336 h, ORYSS (crop), 70 g ai/ha, 14 days after application, read-out: Visual Growth Reduction (%) 14 Days After Application ORYSS

Structure (SMILES) | pest or weed control at 70 g/ha [%]
Cc1c(-c2cc(N)c(Cl)c(C(=O)O)n2)ccc(Cl)c1Cl [Compound 28] | 0 to 29

Same assay, conditions: post-emergence, 336 h, ORYSS (crop), 140 g ai/ha, 14 days after application, read-out: Visual Growth Reduction (%) 14 Days After Application ORYSS

Structure (SMILES) | pest or weed control at 140 g/ha [%]
Cc1c(-c2cc(N)c(Cl)c(C(=O)O)n2)ccc(Cl)c1Cl [Compound 28] | 0 to 29

Same assay, conditions: post-emergence, 336 h, SETFA: giant foxtail (Setaria faberi), 70 g ai/ha, 14 days after application, read-out: Visual Growth Reduction (%) 14 Days After Application SETFA

Structure (SMILES) | pest or weed control at 70 g/ha [%]
Cc1c(-c2cc(N)c(Cl)c(C(=O)O)n2)ccc(Cl)c1Cl [Compound 28] | 0 to 29

Same assay, conditions: post-emergence, 336 h, SETFA: giant foxtail (Setaria faberi), 140 g ai/ha, 14 days after application, read-out: Visual Growth Reduction (%) 14 Days After Application SETFA

Structure (SMILES) | pest or weed control at 140 g/ha [%]
Cc1c(-c2cc(N)c(Cl)c(C(=O)O)n2)ccc(Cl)c1Cl [Compound 28] | 0 to 29

Same assay, conditions: post-emergence, 336 h, SORVU: grain sorghum (Sorghum vulgare), 70 g ai/ha, 14 days after application, read-out: Visual Growth Reduction (%) 14 Days After Application SORVU

Structure (SMILES) | pest or weed control at 70 g/ha [%]
Cc1c(-c2cc(N)c(Cl)c(C(=O)O)n2)ccc(Cl)c1Cl [Compound 28] | 0 to 29

Same assay, conditions: post-emergence, 336 h, SORVU: grain sorghum (Sorghum vulgare), 140 g ai/ha, 14 days after application, read-out: Visual Growth Reduction (%) 14 Days After Application SORVU

Structure (SMILES) | pest or weed control at 140 g/ha [%]
Cc1c(-c2cc(N)c(Cl)c(C(=O)O)n2)ccc(Cl)c1Cl [Compound 28] | 0 to 29

Same assay, conditions: post-emergence, 336 h, TRZSS (crop), 70 g ai/ha, 14 days after application, read-out: Visual Growth Reduction (%) 14 Days After Application TRZSS

Structure (SMILES) | pest or weed control at 70 g/ha [%]
Cc1c(-c2cc(N)c(Cl)c(C(=O)O)n2)ccc(Cl)c1Cl [Compound 28] | 0 to 29

Same assay, conditions: post-emergence, 336 h, TRZSS (crop), 140 g ai/ha, 14 days after application, read-out: Visual Growth Reduction (%) 14 Days After Application TRZSS

Structure (SMILES) | pest or weed control at 140 g/ha [%]
Cc1c(-c2cc(N)c(Cl)c(C(=O)O)n2)ccc(Cl)c1Cl [Compound 28] | 0 to 29

Same assay, conditions: post-emergence, 336 h, ZEAMX: maize, corn (Zea mays), 70 g ai/ha, 14 days after application, read-out: Visual Growth Reduction (%) 14 Days After Application ZEAMX

Structure (SMILES) | pest or weed control at 70 g/ha [%]
Cc1c(-c2cc(N)c(Cl)c(C(=O)O)n2)ccc(Cl)c1Cl [Compound 28] | 30 to 44

Same assay, conditions: post-emergence, 336 h, ZEAMX: maize, corn (Zea mays), 140 g ai/ha, 14 days after application, read-out: Visual Growth Reduction (%) 14 Days After Application ZEAMX

Structure (SMILES) | pest or weed control at 140 g/ha [%]
Cc1c(-c2cc(N)c(Cl)c(C(=O)O)n2)ccc(Cl)c1Cl [Compound 28] | 60 to 74

Tested on: not given
Assay: not given
Conditions: not given

Structure (SMILES) | melting point [°C]
Cc1c(-c2cc(N)c(Cl)c(C(=O)O)n2)ccc(Cl)c1Cl [Compound 28] | 174 to 175
